≈ marks a conversion by molar mass, not a printed value. Read-outs that look alike come from different tables or passages of the source.
Tests used:
[1] = test system: K. pneumoniae NCTC418
Protocol: (§1) Antimicrobial activity was determined for all peptides on E. coli W3110, P. aeruginosa PAO1, A. baumannii ATCC19606, K. pneumoniae NCTC418, and methicillin-resistant S. aureus COL and for selected peptides on P. aeruginosa PA14 and the polymyxin B-resistant derivatives PA14 4.13, PA14 4.18, and PA14 2P4 as well as the clinical isolates ZEM-1A and ZEM9A, K. pneumoniae OXA-48, Enterobacter cloacae, Stenotrophomonas maltophilia, B. cenocepacia, and Staphylococus epidermis. To determine the MIC, the broth microdilution method was used.[75] A single bacterial colony was grown in LB medium overnight at 37 °C and 180 rpm shaking. The compounds were prepared as stock solutions of 2 mg/mL in sterilized milliQ deionized water, added to the first well of 96-well sterile, polypropylene round-bottom microtiter plates (TPP, untreated, Corning Incorporated, Kennebunk, USA), and diluted serially by 1/2. […] The bacterial inoculum was prepared by measuring the absorbance of the overnight culture, which was diluted to concentration of the bacteria was quantified by measuring absorbance at 600 nm and diluted to an OD600 of 0.022 in MH medium pH 7.4 (Sigma-Aldrich, Buchs, Switzerland). The sample solutions (150 μL) were mixed with 4 μL of diluted bacterial suspension with a final inoculation of about 5 × 10^5 CFU. For each test, two columns of the plate were kept for sterility control (MH medium only) and growth control (MH medium with bacterial inoculum, no compound). […] The plates were incubated at 37 °C for 16–20 h under static conditions. 15 μL of 3-(4,5-dimethylthiazol-2-yl)-2,5-diphenyltetrazolium bromide (MTT)[76] (1 mg/mL in sterilized milliQ deionized water) was added to each well, and the plates were incubated at room temperature until MTT staining was completed. The MIC was defined as the lowest concentration of the dendrimer that inhibits the visible growth of the tested bacteria (yellow) with the unaided eye.

[2] = test system: S. aureus COL MRSA; conditions: for MIC S. aureus COL MRSA: MH broth pH 7.4, 16–20 h, 37 °C; for MIC S. aureus COL: supplementary CSV, ranges of Table 1 given as one number
Protocol: as §1

[3] = test system: E. coli W3110
Protocol: as §1

[4] = test system: P. aeruginosa PAO1
Protocol: as §1

[5] = test system: A. baumannii ATCC19606
Protocol: as §1

[6] = MH broth pH 7.4, 16–20 h, 37 °C
[7] = supplementary CSV, ranges of Table 1 given as one number

SMILES	MIC K. pneumoniae NCTC418 [1, 6] [µg/mL]	MIC S. aureus COL MRSA [2] [µg/mL]	MIC S. aureus COL [2] [µg/mL]	MIC E. coli W3110 [3, 6] [µg/mL]	MIC P. aeruginosa PAO1 [4, 6] [µg/mL]	MIC P. aeruginosa PAO1 [4, 7] [µg/mL]	MIC A. baumannii ATCC19606 [5, 6] [µg/mL]	MIC A. baumannii ATCC19606 [5, 7] [µg/mL]	MIC K. pneumoniae NCTC418 [1, 7] [µg/mL]	MIC E. coli W3110 [3, 7] [µg/mL]
CC(C)CC(NC(=O)C(CC(C)C)NC(=O)C(CC(C)C)NC(=O)C(CCCCN)NC(=O)C(CC(C)C)NC(=O)[C@H](CC(C)C)NC(=O)C(CCCCN)NC(=O)C(CC(C)C)NC(=O)C(CC(C)C)NC(=O)C(CCCCN)NC(=O)C(N)CCCCN)C(N)=O (mixture of isomers) [sr-ln65L^6]	16 to 32	16 (≈ 12.1 µM)	16 (≈ 12.1 µM)	4 (≈ 3.03 µM)	8 (≈ 6.05 µM)	8 (≈ 6.05 µM)	8 (≈ 6.05 µM)	8 (≈ 6.05 µM)		
CC(C)CC(NC(=O)C(CC(C)C)NC(=O)C(CC(C)C)NC(=O)C(CCCCN)NC(=O)C(CC(C)C)NC(=O)C(CC(C)C)NC(=O)C(CCCCN)NC(=O)C(CC(C)C)NC(=O)C(CC(C)C)NC(=O)C(CCCCN)NC(=O)C(N)CCCCN)C(N)=O (racemic) [sr-ln65]	16 to 32	8 (≈ 6.05 µM)		4 (≈ 3.03 µM)	4 (≈ 3.03 µM)		4 (≈ 3.03 µM)			
CC(C)C[C@H](NC(=O)[C@H](CC(C)C)NC(=O)[C@H](CC(C)C)NC(=O)[C@H](CCCCN)NC(=O)[C@@H](CC(C)C)NC(=O)[C@@H](CC(C)C)NC(=O)[C@H](CCCCN)NC(=O)[C@H](CC(C)C)NC(=O)[C@H](CC(C)C)NC(=O)[C@H](CCCCN)NC(=O)[C@@H](N)CCCCN)C(N)=O [HP6, KKLLKllKLLL]	64 (≈ 48.4 µM)	16 (≈ 12.1 µM)	16 (≈ 12.1 µM)	2 (≈ 1.51 µM)	8 (≈ 6.05 µM)	8 (≈ 6.05 µM)	4 (≈ 3.03 µM)	4 (≈ 3.03 µM)	64 (≈ 48.4 µM)	
CC(C)C[C@H](NC(=O)[C@H](CC(C)C)NC(=O)[C@H](CC(C)C)NC(=O)[C@H](CCCCN)NC(=O)[C@@H](CC(C)C)NC(=O)[C@@H](CC(C)C)NC(=O)[C@@H](CCCCN)NC(=O)[C@H](CC(C)C)NC(=O)[C@H](CC(C)C)NC(=O)[C@H](CCCCN)NC(=O)[C@@H](N)CCCCN)C(N)=O [HP9, KKLLkllKLLL]	>64	>64		8 (≈ 6.05 µM)	64 (≈ 48.4 µM)	64 (≈ 48.4 µM)				
CC(C)C[C@H](NC(=O)[C@H](CC(C)C)NC(=O)[C@H](CC(C)C)NC(=O)[C@H](CCCCN)NC(=O)[C@H](CC(C)C)NC(=O)[C@@H](CC(C)C)NC(=O)[C@H](CCCCN)NC(=O)[C@@H](CC(C)C)NC(=O)[C@@H](CC(C)C)NC(=O)[C@@H](CCCCN)NC(=O)[C@@H](N)CCCCN)C(N)=O [HP12, KkllKlLKLLL]	8 to 16	4 (≈ 3.03 µM)	4 (≈ 3.03 µM)	2 to 4	4 to 8	6 (≈ 4.54 µM)	8 (≈ 6.05 µM)	8 (≈ 6.05 µM)		3 (≈ 2.27 µM)
CC(C)C[C@H](NC(=O)[C@H](CC(C)C)NC(=O)[C@H](CC(C)C)NC(=O)[C@H](CCCCN)NC(=O)[C@@H](CC(C)C)NC(=O)[C@@H](CC(C)C)NC(=O)[C@H](CCCCN)NC(=O)[C@@H](CC(C)C)NC(=O)[C@@H](CC(C)C)NC(=O)[C@H](CCCCN)NC(=O)[C@@H](N)CCCCN)C(N)=O [HP14, KKllKllKLLL]	>64	16 to 32		2 (≈ 1.51 µM)	8 (≈ 6.05 µM)	8 (≈ 6.05 µM)	4 to 8	6 (≈ 4.54 µM)		
CC(C)C[C@H](NC(=O)[C@@H](CC(C)C)NC(=O)[C@@H](CC(C)C)NC(=O)[C@H](CCCCN)NC(=O)[C@H](CC(C)C)NC(=O)[C@H](CC(C)C)NC(=O)[C@H](CCCCN)NC(=O)[C@H](CC(C)C)NC(=O)[C@@H](CC(C)C)NC(=O)[C@@H](CCCCN)NC(=O)[C@@H](N)CCCCN)C(N)=O [HP17, KklLKLLKllL]	32 to 64	32 to 64	48 (≈ 36.3 µM)	8 (≈ 6.05 µM)	16 (≈ 12.1 µM)	16 (≈ 12.1 µM)	32 (≈ 24.2 µM)	32 (≈ 24.2 µM)	48 (≈ 36.3 µM)	
CC(C)C[C@H](NC(=O)[C@H](CCCCN)NC(=O)[C@H](CC(C)C)NC(=O)[C@H](CC(C)C)NC(=O)[C@@H](CCCCN)NC(=O)[C@H](N)CCCCN)C(=O)N[C@@H](CC(C)C)C(=O)N[C@@H](CCCCN)C(=O)N[C@@H](CC(C)C)C(=O)N[C@H](CC(C)C)C(=O)N[C@H](CC(C)C)C(N)=O [HP18, kkLLKLLKLll]	>64	16 to 32		4 to 8	8 (≈ 6.05 µM)	8 (≈ 6.05 µM)	8 (≈ 6.05 µM)	8 (≈ 6.05 µM)		6 (≈ 4.54 µM)
CC(C)C[C@H](NC(=O)[C@H](CC(C)C)NC(=O)[C@@H](CC(C)C)NC(=O)[C@@H](CCCCN)NC(=O)[C@H](CC(C)C)NC(=O)[C@H](CC(C)C)NC(=O)[C@H](CCCCN)NC(=O)[C@@H](CC(C)C)NC(=O)[C@@H](CC(C)C)NC(=O)[C@H](CCCCN)NC(=O)[C@@H](N)CCCCN)C(N)=O [HP20, KKllKLLklLL]	>64	>64		8 (≈ 6.05 µM)	16 (≈ 12.1 µM)	16 (≈ 12.1 µM)	32 to 64	48 (≈ 36.3 µM)		
CC(C)C[C@H](NC(=O)[C@H](CC(C)C)NC(=O)[C@@H](CCCCN)NC(=O)[C@H](CC(C)C)NC(=O)[C@H](CC(C)C)NC(=O)[C@@H](CCCCN)NC(=O)[C@@H](CC(C)C)NC(=O)[C@H](CC(C)C)NC(=O)[C@H](CCCCN)NC(=O)[C@@H](N)CCCCN)C(=O)N[C@H](CC(C)C)C(N)=O [HP23, KKLlkLLkLLl]	>64	32 (≈ 24.2 µM)	32 (≈ 24.2 µM)	2 (≈ 1.51 µM)	4 to 8	6 (≈ 4.54 µM)				
CC(C)C[C@H](NC(=O)[C@H](CC(C)C)NC(=O)[C@@H](CCCCN)NC(=O)[C@H](CC(C)C)NC(=O)[C@H](CC(C)C)NC(=O)[C@@H](CCCCN)NC(=O)[C@H](CC(C)C)NC(=O)[C@H](CC(C)C)NC(=O)[C@@H](CCCCN)NC(=O)[C@H](N)CCCCN)C(=O)N[C@H](CC(C)C)C(N)=O [HP27, kkLLkLLkLLl]	>64	32 (≈ 24.2 µM)	32 (≈ 24.2 µM)	4 (≈ 3.03 µM)	8 (≈ 6.05 µM)	8 (≈ 6.05 µM)	32 (≈ 24.2 µM)	32 (≈ 24.2 µM)		
CC(C)C[C@H](NC(=O)[C@@H](CC(C)C)NC(=O)[C@H](CC(C)C)NC(=O)[C@@H](CCCCN)NC(=O)[C@H](CC(C)C)NC(=O)[C@@H](CC(C)C)NC(=O)[C@H](CCCCN)NC(=O)[C@@H](CC(C)C)NC(=O)[C@H](CC(C)C)NC(=O)[C@@H](CCCCN)NC(=O)[C@@H](N)CCCCN)C(N)=O [HP30, KkLlKlLkLlL]	>64	64 (≈ 48.4 µM)	64 (≈ 48.4 µM)	8 (≈ 6.05 µM)	8 to 16	12 (≈ 9.08 µM)	32 (≈ 24.2 µM)	32 (≈ 24.2 µM)		

Reference: publication PMC10258794, “To Fold or Not to Fold: Diastereomeric Optimization of an α-Helical Antimicrobial Peptide” (Journal of Medicinal Chemistry, 2023)
